Test results published in PubChem BioAssay AID2060885 (Molecular Pharmacology Branch, DTP, NCI, 2025).

Test system: NCI-H23 complex spheroids with HUVEC/MSC, viability
Test: Anticancer human tumor NCI-H23 cell line growth inhibition [RAS];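 note: spheroids exposed to compound for 7 days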;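 for viability, T/C: 100% = DMSO vehicle control viability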
Conditions: for IC50: curve of first compound; for viability, T/C: stronger effect = lower value
Summary of the method: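 Agents were tested in combination matrices in half-log decrements from a top concentration at or near clinical Cmax (10 microM if undetermined). Targets were multi-cell spheroids of tumour lines plus HUVEC and MSC stromal cells.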

[1] = second compound 0.000949 µM, first compound 0.0316 µM
[2] = second compound 0.000949 µM, first compound 0.1 µM
[3] = second compound 0.000949 µM, first compound 0.316 µM
[4] = second compound 0.000949 µM, first compound 1 µM
[5] = second compound 0.000949 µM, first compound 3.16 µM
[6] = second compound 0.000949 µM, first compound 10 µM
[7] = second compound 0.003 µM, first compound 0.0316 µM
[8] = second compound 0.003 µM, first compound 0.1 µM
[9] = second compound 0.003 µM, first compound 0.316 µM
[10] = second compound 0.003 µM, first compound 1 µM
[11] = second compound 0.003 µM, first compound 3.16 µM
[12] = second compound 0.003 µM, first compound 10 µM
[13] = second compound 0.00949 µM, first compound 0.0316 µM
[14] = second compound 0.00949 µM, first compound 0.1 µM
[15] = second compound 0.00949 µM, first compound 0.316 µM
[16] = second compound 0.00949 µM, first compound 1 µM
[17] = second compound 0.00949 µM, first compound 3.16 µM
[18] = second compound 0.00949 µM, first compound 10 µM
[19] = second compound 0.03 µM, first compound 0.0316 µM
[20] = second compound 0.03 µM, first compound 0.1 µM
[21] = second compound 0.03 µM, first compound 0.316 µM
[22] = second compound 0.03 µM, first compound 1 µM
[23] = second compound 0.03 µM, first compound 3.16 µM
[24] = second compound 0.03 µM, first compound 10 µM
[25] = second compound 0.0949 µM, first compound 0.0316 µM
[26] = second compound 0.0949 µM, first compound 0.1 µM
[27] = second compound 0.0949 µM, first compound 0.316 µM
[28] = second compound 0.0949 µM, first compound 1 µM
[29] = second compound 0.0949 µM, first compound 3.16 µM
[30] = second compound 0.0949 µM, first compound 10 µM
[31] = second compound 0.3 µM, first compound 0.0316 µM
[32] = second compound 0.3 µM, first compound 0.1 µM
[33] = second compound 0.3 µM, first compound 0.316 µM
[34] = second compound 0.3 µM, first compound 1 µM
[35] = second compound 0.3 µM, first compound 3.16 µM
[36] = second compound 0.3 µM, first compound 10 µM

With `Cc1nc(N2CCC3(CC2)COC(C)C3N)c(CO)nc1Sc1ccnc(N)c1Cl` (stereo unspecified) + CCn1c(-c2cccnc2C(C)OC)c2c3cc(ccc31)N1CCOC(CC(NC(=O)C(C(C)C)N(C)C(=O)C3(F)CCN(C(=O)C#CC(C)(C)N(C)C)CC3)C(=O)N3CCCC(N3)C(=O)OCC(C)(C)C2)C1 the IC50 (second compound 0.000949 µM) was < 0.0316 µM, the IC50 (second compound 0.003 µM) was < 0.0316 µM and the IC50 (second compound 0.00949 µM) was < 0.0316 µM. The IC50 (second compound 0.03 µM) was < 0.0316 µM, the IC50 (second compound 0.0949 µM) was < 0.0316 µM and the IC50 (second compound 0.3 µM) was < 0.0316 µM. The viability, T/C [1] was 27.2%, the viability, T/C [2] was 21% and the viability, T/C [3] was 13.6%. The viability, T/C [4] was 15.3%, the viability, T/C [5] was 12.3% and the viability, T/C [6] was 9.03%. It also gave a viability, T/C [7] of 25.1%, a viability, T/C [8] of 20.2% and a viability, T/C [9] of 16.4%. For the same compound, the viability, T/C [10] was 16.7%, the viability, T/C [11] was 12.2% and the viability, T/C [12] was 8.35%. The viability, T/C [13] was 24%, the viability, T/C [14] was 21.4% and the viability, T/C [15] was 18%. The viability, T/C [16] was 14.4%, the viability, T/C [17] was 11.5% and the viability, T/C [18] was 8.24%. For the same compound, the viability, T/C [19] was 22.4%, the viability, T/C [20] was 19.1% and the viability, T/C [21] was 17.7%. It also gave a viability, T/C [22] of 11.7%, a viability, T/C [23] of 9.09% and a viability, T/C [24] of 9.82%. The viability, T/C [25] was 20.3%, the viability, T/C [26] was 20.6% and the viability, T/C [27] was 15.1%. It also gave a viability, T/C [28] of 13.4%, a viability, T/C [29] of 8.28% and a viability, T/C [30] of 9.12%. For the same compound, the viability, T/C [31] was 20%, the viability, T/C [32] was 17.1% and the viability, T/C [33] was 18.1%. It also gave a viability, T/C [34] of 11.3%, a viability, T/C [35] of 7.7% and a viability, T/C [36] of 9.33%.

`NC1c2ccccc2OC12CCN(c1cnc3c(N4CCCc5ncccc54)n[nH]c3n1)CC2` (stereo unspecified) + CCn1c(-c2cccnc2C(C)OC)c2c3cc(ccc31)N1CCOC(CC(NC(=O)C(C(C)C)N(C)C(=O)C3(F)CCN(C(=O)C#CC(C)(C)N(C)C)CC3)C(=O)N3CCCC(N3)C(=O)OCC(C)(C)C2)C1 was tested, and the IC50 (second compound 0.000949 µM) was < 0.0316 µM, the IC50 (second compound 0.003 µM) was < 0.0316 µM and the IC50 (second compound 0.00949 µM) was < 0.0316 µM. For the same compound, the IC50 (second compound 0.03 µM) was < 0.0316 µM, the IC50 (second compound 0.0949 µM) was < 0.0316 µM and the IC50 (second compound 0.3 µM) was < 0.0316 µM. For the same compound, the viability, T/C [1] was 19.7%, the viability, T/C [2] was 16.4% and the viability, T/C [3] was 10.6%. It also gave a viability, T/C [4] of 9.5%, a viability, T/C [5] of 7.93% and a viability, T/C [6] of 5.17%. The viability, T/C [7] was 20.7%, the viability, T/C [8] was 15.8% and the viability, T/C [9] was 11.7%. For the same compound, the viability, T/C [10] was 8.99%, the viability, T/C [11] was 6.81% and the viability, T/C [12] was 5.13%. It also gave a viability, T/C [13] of 18.1%, a viability, T/C [14] of 15% and a viability, T/C [15] of 11.4%. For the same compound, the viability, T/C [16] was 9.87%, the viability, T/C [17] was 5.94% and the viability, T/C [18] was 5.23%. For the same compound, the viability, T/C [19] was 17.8%, the viability, T/C [20] was 14.9% and the viability, T/C [21] was 11.8%. It also gave a viability, T/C [22] of 8.83%, a viability, T/C [23] of 5.09% and a viability, T/C [24] of 5.86%. It also gave a viability, T/C [25] of 15%, a viability, T/C [26] of 12.7% and a viability, T/C [27] of 10.3%. It also gave a viability, T/C [28] of 7.47%, a viability, T/C [29] of 5.66% and a viability, T/C [30] of 5.23%. For the same compound, the viability, T/C [31] was 16.5%, the viability, T/C [32] was 11.5% and the viability, T/C [33] was 9.55%. For the same compound, the viability, T/C [34] was 6.6%, the viability, T/C [35] was 6.48% and the viability, T/C [36] was 5.71%.

`Nc1ccn(C2OC(CO)C(O)C2(F)F)c(=O)n1` (stereo unspecified) + CCn1c(-c2cccnc2C(C)OC)c2c3cc(ccc31)N1CCOC(CC(NC(=O)C(C(C)C)N(C)C(=O)C3(F)CCN(C(=O)C#CC(C)(C)N(C)C)CC3)C(=O)N3CCCC(N3)C(=O)OCC(C)(C)C2)C1 was tested, and the IC50 (second compound 0.000949 µM) was < 0.00316 µM, the IC50 (second compound 0.003 µM) was < 0.00316 µM and the IC50 (second compound 0.00949 µM) was < 0.00316 µM. For the same compound, the IC50 (second compound 0.03 µM) was < 0.00316 µM, the IC50 (second compound 0.0949 µM) was < 0.00316 µM and the IC50 (second compound 0.3 µM) was < 0.00316 µM. The viability, T/C (second compound 0.000949 µM, first compound 0.00316 µM) was 11.4%, the viability, T/C (second compound 0.000949 µM, first compound 0.01 µM) was 1.89% and the viability, T/C [1] was 1.33%. For the same compound, the viability, T/C [2] was 1.32%, the viability, T/C [3] was 1.35% and the viability, T/C [4] was 1.46%. For the same compound, the viability, T/C (second compound 0.003 µM, first compound 0.00316 µM) was 12.7%, the viability, T/C (second compound 0.003 µM, first compound 0.01 µM) was 1.78% and the viability, T/C [7] was 1.61%. It also gave a viability, T/C [8] of 1.5%, a viability, T/C [9] of 1.63% and a viability, T/C [10] of 2.39%. The viability, T/C (second compound 0.00949 µM, first compound 0.00316 µM) was 14.5%, the viability, T/C (second compound 0.00949 µM, first compound 0.01 µM) was 1.69% and the viability, T/C [13] was 2.29%. For the same compound, the viability, T/C [14] was 1.8%, the viability, T/C [15] was 1.79% and the viability, T/C [16] was 1.41%. It also gave a viability, T/C (second compound 0.03 µM, first compound 0.00316 µM) of 12.3%, a viability, T/C (second compound 0.03 µM, first compound 0.01 µM) of 1.86% and a viability, T/C [19] of 1.31%. The viability, T/C [20] was 1.39%, the viability, T/C [21] was 1.75% and the viability, T/C [22] was 1.29%. It also gave a viability, T/C (second compound 0.0949 µM, first compound 0.00316 µM) of 7.86%, a viability, T/C (second compound 0.0949 µM, first compound 0.01 µM) of 1.71% and a viability, T/C [25] of 1.74%. For the same compound, the viability, T/C [26] was 1.51%, the viability, T/C [27] was 1.72% and the viability, T/C [28] was 1.81%. The viability, T/C (second compound 0.3 µM, first compound 0.00316 µM) was 7.88%, the viability, T/C (second compound 0.3 µM, first compound 0.01 µM) was 1.67% and the viability, T/C [31] was 1.78%. For the same compound, the viability, T/C [32] was 1.28%, the viability, T/C [33] was 1.59% and the viability, T/C [34] was 1.54%.
